Reference: the supplement of paper PMC10627819
In brackets after ≈: the same amount, converted by molar mass.

Key:
B. subtilis 168 [1] = assay: fitness (endpoint OD595 vs no drug) (fraction); higher = more growth
Method in brief: (§1)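 Background-subtracted growth curves were the basis for fitness, taken as the optical density at entry into stationary phase over the robust mean of no-drug control wells. A cap of 1 was applied. The curves came from OD595 readings every 30 min for 14 h at 37 °C, in 384-well plates seeded at OD595 0.01 with 30 µl, or 55 µl for S. pneumoniae.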

S. aureus DSM 20231 [2] = assay: as above
Method in brief: as §1

S. aureus Newman [3] = assay: as above
Method in brief: as §1

S. pneumoniae D39V [4] = assay: as above
Method in brief: as §1

B. subtilis 168 [5] = assay: Bliss interaction score (quartile over a dose matrix) (fitness difference); higher = more antagonism (negative = synergy)
Method in brief: (§2)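 Each OD595 reading at entry into stationary phase was scaled to the robust mean of the untreated wells on its plate, with a ceiling of 1. These ratios define fitness, and single-drug fitness was inferred from combinations. The Bliss score compares observed fitness with the product-based expectation and is reported as quartiles across all replicate types, technical, biological and donor/recipient.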

S. aureus DSM 20231 [6] = assay: as above
Method in brief: as §2

S. aureus Newman [7] = assay: as above
Method in brief: as §2

S. pneumoniae D39V [8] = assay: as above
Method in brief: as §2

B. subtilis 168 [9] = system: B. subtilis 168
S. aureus DSM 20231 [10] = system: S. aureus DSM 20231
S. aureus Newman [11] = system: S. aureus Newman
S. pneumoniae D39V [12] = system: S. pneumoniae D39V
[13] = first compound 0.625 µg/mL, partner 0.0075 µg/mL
[14] = first compound 0.625 µg/mL, partner 0.015 µg/mL
[15] = first compound 1.25 µg/mL, partner 0.0075 µg/mL
[16] = first compound 1.25 µg/mL, partner 0.015 µg/mL
[17] = first compound 2.5 µg/mL, partner 0.0075 µg/mL
[18] = first compound 2.5 µg/mL, partner 0.015 µg/mL
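For Bliss interaction score (quartile over a dose matrix) in this document: first quartile when negative (synergy) and third quartile when positive (antagonism).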

SMILES: Cc1ncc([N+](=O)[O-])n1CCO [Metronidazole] + COc1c(N2C[C@@H]3CCCN[C@@H]3C2)c(F)cc2c(=O)c(C(=O)O)cn(C3CC3)c12 [Moxifloxacin]
- fitness (B. subtilis 168 [1]; first compound 0.625 µg/mL, partner 0.0312 µg/mL): 0.0445
- fitness (B. subtilis 168 [1]; first compound 0.625 µg/mL, partner 0.0625 µg/mL): 0.0572
- fitness (B. subtilis 168 [1]; first compound 0.625 µg/mL, partner 0.125 µg/mL): 0.045
- fitness (B. subtilis 168 [1]; first compound 0.625 µg/mL, partner 2 µg/mL): 0.0237
- fitness (B. subtilis 168 [1]; first compound 0.625 µg/mL, partner 4 µg/mL): 0.0328
- fitness (B. subtilis 168 [1]; first compound 0.625 µg/mL, partner 8 µg/mL): 0.0161
- fitness (B. subtilis 168 [1]; first compound 1.25 µg/mL, partner 0.0312 µg/mL): 0.0649
- fitness (B. subtilis 168 [1]; first compound 1.25 µg/mL, partner 0.0625 µg/mL): 0.0674
- fitness (B. subtilis 168 [1]; first compound 1.25 µg/mL, partner 0.125 µg/mL): 0.0461
- fitness (B. subtilis 168 [1]; first compound 1.25 µg/mL, partner 2 µg/mL): 0.0257
- fitness (B. subtilis 168 [1]; first compound 1.25 µg/mL, partner 4 µg/mL): 0.0355
- fitness (B. subtilis 168 [1]; first compound 1.25 µg/mL, partner 8 µg/mL): 0.022
- fitness (B. subtilis 168 [1]; first compound 2.5 µg/mL, partner 0.0312 µg/mL): 0.0682
- fitness (B. subtilis 168 [1]; first compound 2.5 µg/mL, partner 0.0625 µg/mL): 0.0527
- fitness (B. subtilis 168 [1]; first compound 2.5 µg/mL, partner 0.125 µg/mL): 0.0558
- fitness (B. subtilis 168 [1]; first compound 2.5 µg/mL, partner 2 µg/mL): 0.0301
- fitness (B. subtilis 168 [1]; first compound 2.5 µg/mL, partner 4 µg/mL): 0.0306
- fitness (B. subtilis 168 [1]; first compound 2.5 µg/mL, partner 8 µg/mL): 0.0188
- fitness (S. aureus DSM 20231 [2]; [13]): 0.835
- fitness (S. aureus DSM 20231 [2]; [14]): 0.779
- fitness (S. aureus DSM 20231 [2]; first compound 0.625 µg/mL, partner 0.03 µg/mL): 0.635
- fitness (S. aureus DSM 20231 [2]; first compound 0.625 µg/mL, partner 0.06 µg/mL, one replicate): 0.703
- fitness (S. aureus DSM 20231 [2]; first compound 0.625 µg/mL, partner 0.12 µg/mL, one replicate): 0.498
- fitness (S. aureus DSM 20231 [2]; [15]): 0.834
- fitness (S. aureus DSM 20231 [2]; [16]): 0.807
- fitness (S. aureus DSM 20231 [2]; first compound 1.25 µg/mL, partner 0.03 µg/mL): 0.633
- fitness (S. aureus DSM 20231 [2]; first compound 1.25 µg/mL, partner 0.06 µg/mL, one replicate): 0.666
- fitness (S. aureus DSM 20231 [2]; first compound 1.25 µg/mL, partner 0.12 µg/mL, one replicate): 0.486
- fitness (S. aureus DSM 20231 [2]; [17]): 0.883
- fitness (S. aureus DSM 20231 [2]; [18]): 0.828
- fitness (S. aureus DSM 20231 [2]; first compound 2.5 µg/mL, partner 0.03 µg/mL): 0.652
- fitness (S. aureus DSM 20231 [2]; first compound 2.5 µg/mL, partner 0.06 µg/mL, one replicate): 0.703
- fitness (S. aureus DSM 20231 [2]; first compound 2.5 µg/mL, partner 0.12 µg/mL, one replicate): 0.541
- fitness (S. aureus Newman [3]; [13]): 0.77
- fitness (S. aureus Newman [3]; [14]): 0.62
- fitness (S. aureus Newman [3]; first compound 0.781 µg/mL, partner 0.0075 µg/mL): 0.691
- fitness (S. aureus Newman [3]; first compound 0.781 µg/mL, partner 0.015 µg/mL): 0.537
- fitness (S. aureus Newman [3]; first compound 0.781 µg/mL, partner 0.03 µg/mL): 0.0945
- fitness (S. aureus Newman [3]; [15]): 0.811
- fitness (S. aureus Newman [3]; [16]): 0.598
- fitness (S. aureus Newman [3]; first compound 1.562 µg/mL, partner 0.0075 µg/mL): 0.689
- fitness (S. aureus Newman [3]; first compound 1.562 µg/mL, partner 0.015 µg/mL): 0.531
- fitness (S. aureus Newman [3]; first compound 1.562 µg/mL, partner 0.03 µg/mL): 0.0833
- fitness (S. aureus Newman [3]; [17]): 0.757
- fitness (S. aureus Newman [3]; [18]): 0.596
- fitness (S. aureus Newman [3]; first compound 3.124 µg/mL, partner 0.0075 µg/mL): 0.725
- fitness (S. aureus Newman [3]; first compound 3.124 µg/mL, partner 0.015 µg/mL): 0.525
- fitness (S. aureus Newman [3]; first compound 3.124 µg/mL, partner 0.03 µg/mL): 0.0829
- fitness (S. pneumoniae D39V [4]; first compound 1.073 µg/mL, partner 0.0037 µg/mL): 0.834
- fitness (S. pneumoniae D39V [4]; first compound 1.073 µg/mL, partner 0.0075 µg/mL): 0.85
- fitness (S. pneumoniae D39V [4]; first compound 1.073 µg/mL, partner 0.015 µg/mL): 0.879
- fitness (S. pneumoniae D39V [4]; first compound 1.25 µg/mL, partner 0.005 µg/mL): 0.991
- fitness (S. pneumoniae D39V [4]; first compound 1.25 µg/mL, partner 0.01 µg/mL): ≥ 1
- fitness (S. pneumoniae D39V [4]; first compound 1.25 µg/mL, partner 0.02 µg/mL): 0.975
- fitness (S. pneumoniae D39V [4]; first compound 2.145 µg/mL, partner 0.0037 µg/mL): 0.689
- fitness (S. pneumoniae D39V [4]; first compound 2.145 µg/mL, partner 0.0075 µg/mL): 0.707
- fitness (S. pneumoniae D39V [4]; first compound 2.145 µg/mL, partner 0.015 µg/mL): 0.808
- fitness (S. pneumoniae D39V [4]; first compound 2.5 µg/mL, partner 0.005 µg/mL): ≥ 1
- fitness (S. pneumoniae D39V [4]; first compound 2.5 µg/mL, partner 0.01 µg/mL): ≥ 1
- fitness (S. pneumoniae D39V [4]; first compound 2.5 µg/mL, partner 0.02 µg/mL): ≥ 1
- fitness (S. pneumoniae D39V [4]; first compound 4.29 µg/mL, partner 0.0037 µg/mL): 0.742
- fitness (S. pneumoniae D39V [4]; first compound 4.29 µg/mL, partner 0.0075 µg/mL): 0.787
- fitness (S. pneumoniae D39V [4]; first compound 4.29 µg/mL, partner 0.015 µg/mL): 0.84
- fitness (S. pneumoniae D39V [4]; first compound 5 µg/mL, partner 0.005 µg/mL): ≥ 1
- fitness (S. pneumoniae D39V [4]; first compound 5 µg/mL, partner 0.01 µg/mL): 0.999
- fitness (S. pneumoniae D39V [4]; first compound 5 µg/mL, partner 0.02 µg/mL): 0.983
- Bliss interaction score (B. subtilis 168 [5]): -0.015
- Bliss interaction score (S. aureus DSM 20231 [6]): -0.063
- Bliss interaction score (S. aureus Newman [7]): -0.0493
- Bliss interaction score (S. pneumoniae D39V [8]): 0.0628

SMILES: CN(C)[C@@H]1C(O)=C(C(N)=O)C(=O)[C@@]2(O)C(O)=C3C(=O)c4c(O)ccc(Cl)c4[C@@](C)(O)[C@H]3C[C@@H]12 [Chlortetracycline]
- MIC (B. subtilis 168 [9]): 0.4 µg/mL (≈ 0.835 µM)
- MIC (S. aureus DSM 20231 [10]): 0.15 µg/mL (≈ 0.313 µM)
- MIC (S. aureus Newman [11]): 0.095 µg/mL (≈ 0.198 µM)
- MIC (S. pneumoniae D39V [12]): 1.5 µg/mL (≈ 3.13 µM)
- fitness (B. subtilis 168 [1]; 0.0475 µg/mL): 0.895
- fitness (B. subtilis 168 [1]; 0.095 µg/mL): 0.8
- fitness (B. subtilis 168 [1]; 0.19 µg/mL): 0.524
- fitness (S. aureus DSM 20231 [2]; 0.012 µg/mL): 0.793
- fitness (S. aureus DSM 20231 [2]; 0.024 µg/mL): 0.441
- fitness (S. aureus DSM 20231 [2]; 0.048 µg/mL): 0.073
- fitness (S. aureus Newman [3]; 0.012 µg/mL): 0.683
- fitness (S. aureus Newman [3]; 0.0238 µg/mL): 0.237
- fitness (S. aureus Newman [3]; 0.024 µg/mL): 0.402
- fitness (S. aureus Newman [3]; 0.0475 µg/mL): 0.0993
- fitness (S. aureus Newman [3]; 0.048 µg/mL): 0.0667
- fitness (S. aureus Newman [3]; 0.095 µg/mL): 0.0061
- fitness (S. pneumoniae D39V [4]; 0.012 µg/mL): 0.857
- fitness (S. pneumoniae D39V [4]; 0.024 µg/mL): 0.703
- fitness (S. pneumoniae D39V [4]; 0.048 µg/mL): 0.526
